Consider 85 compounds from PubChem BioAssay AID602211 (Sanford-Burnham Center for Chemical Genomics, 2012).

Each structure is given as a SMILES string. Activity calls are given as the source filed them.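 Rule for the calls: active = mean IC50 at or below 10 µM; inactive = the rest.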

For the test, the system named is H9c2 cardiomyocytes, H2O2 protection, ATPLite viability, 2 h. As to the kind of experiment: H2O2-induced H9c2 cell death suppression – ATPLite luminescence, set 2, dose response (AID 602211;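 note: potency is for protection so actives keep ATP signal up against peroxide killing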). (Cellular ATP, detected with luciferase, serves as a proxy for viable cell number.)

Turning to `COc1ccc(CCNC(=O)C(=O)NCC2CCCN2S(=O)(=O)c2ccccc2)cc1OC` (stereo not given), the IC50 was 6.18 µM. The figure for `COc1ccc(-c2oc(=O)c3cc(OC)c(OC)cc3c2C#CCCO)cc1` is 6.71 µM; for `CCOc1ccc(CCNC(=O)c2cc3c(C)nccc3[nH]c2=O)cc1OCC` it is 42.9 µM (inactive). Turning to `COc1ccc(N/C=C(\C#N)c2nc3ccccc3n2C)c(OC)c1`, the half-inhibitory concentration (IC50) was 3.73 µM. With `COc1ccccc1NC(=O)c1cc(-c2ccc(OC)c(OC)c2)nc2ccccc12`, the IC50 was 4.06 µM. For the compound `COc1cccc(/C=N/Nc2nc3ccccc3n3cnnc23)c1`, the IC50 is > 79 µM (inactive). Take `COc1cc(/C=N/NC(=O)c2ccncc2)ccc1OC(=O)c1ccccc1Cl`: the IC50 is 5.67 µM.

For `CCOC(=O)C1CCN(C(=O)c2ccc3c(=O)n4nc(Nc5ccccc5OC)sc4nc3c2)CC1`, the concentration for half-maximal inhibition (IC50) is 6.31 µM. As for `O=C(CNC(=O)c1[nH]cnc1C(=O)NC(c1ccccc1)c1ccccc1)OCc1ccccc1`, the IC50 was 10.1 µM (inactive). Consider `COc1cc(/C=N/n2nnnc2Nc2ccccc2)cc(OC)c1OC`, for which the IC50 is 9.53 µM.

As to `O=C(NCCc1ccccc1Cl)c1ccc2nc3ccccc3c(=O)n2c1`, the IC50 is 7.16 µM.

On to `O=C(Nc1cccc(NC(=O)c2ccc([N+](=O)[O-])o2)c1)c1ccco1`, for which the IC50 was 1.58 µM. For `Cc1ccc(CN(C(=O)CNC(=O)c2cccs2)C(C(=O)NCC2CCCO2)c2ccccc2)cc1` (stereo not given), the IC50 was 14.9 µM (inactive). As to `O=C(Nc1ccc2c(c1)OCO2)c1cnn2c(C(F)(F)F)cc(-c3ccco3)nc12`, the IC50 was 2.58 µM. In the case of `COc1ccc(-c2cc(C(=O)Nc3ccccc3N3CCOCC3)c3ccccc3n2)cc1OC`, the IC50 is 4.52 µM. The figure for `Cn1nc(C(=O)Nc2nc(-c3ccccn3)cs2)c2ccccc2c1=O` is 6.13 µM.

Regarding `COc1cccc(/C=N/NC(=O)c2ccncc2)c1OC(=O)c1ccc(Br)cc1`, the IC50 is 15.4 µM (inactive). `COc1cc(C(=O)Nc2ccc(NC(=O)c3cccc(Cl)c3)nc2)cc(OC)c1OC`: the half-inhibitory concentration (IC50) is 2.96 µM. With `COc1ccc(OC)c(/C=N/Nc2nncn2/N=C/c2cc(OC)ccc2OC)c1` the figure was 6.17 µM; with `COCCNC(=O)COC(=O)c1ccc(OCC(=O)Nc2ccccc2OC)c(OC)c1`, 20.4 µM (inactive). With `Cc1ccc(C(=O)Nc2cccc(C(F)(F)F)c2)cc1NC(=O)c1csc(-c2ccncc2)n1` the figure was 5.51 µM; with `CCOCCCNC(=O)CCC(=O)NNc1nc2ccccc2c2nc(-c3ccccc3)nn12`, 42.6 µM (inactive); with `COC(=O)c1[nH]c2cc(OC)c(OC)cc2c1/C=N/Nc1ccccc1`, 6.78 µM. With `O=C(CN1C(=O)C2C3C=CC(C3)C2C1=O)Nc1nc(-c2ccccn2)cs1` (stereo not given) the figure was 21.1 µM (inactive); with `COc1ccccc1NC(=O)CSc1ccc2nnc(-c3ccc(C)cc3)n2n1`, 3.16 µM; with `CC1(C)Cc2c(c(N3CCOCC3)nc3sc4c(NN)ncnc4c23)CS1`, > 79 µM (inactive). As to `COc1ccc(-c2ccc3c(c2)S(=O)(=O)c2cccc(C(=O)NC[C@@H]4CCCO4)c2C3=O)cc1OC`, the IC50 was 4.98 µM. `Cc1nn(-c2ccccc2)nc1C(=O)Nc1cccc(C(=O)NC2CC2)c1`: the concentration for half-maximal inhibition (IC50) was 4.37 µM. `N#Cc1c(-c2ccco2)cc(-c2ccccn2)nc1N`: the IC50 was 28.5 µM (inactive).

On to `COc1cc(NC(=O)c2c(OC)cccc2OC)ccc1NC(=O)c1cc2ccccc2o1`, for which the IC50 was 15.1 µM (inactive). Regarding `CC(C)(C)NC(=O)c1cccc(NC(=O)c2ccc(NC(=O)c3ccco3)cc2)c1`, the IC50 was > 79 µM (inactive).

On to `CCC(=O)Oc1cccc(C(=O)Nc2ccc(-c3nnc(-c4ccco4)o3)cc2)c1`, for which the IC50 was > 79 µM (inactive). For the compound `COc1cc(/C=N/NC(=O)c2cccnc2)ccc1OCC(=O)Nc1ccccc1Cl`, the half-inhibitory concentration (IC50) is 1.78 µM. As to `Cc1cccc(NC(=O)c2nc[nH]c2C(=O)NCCCNC(=O)c2[nH]cnc2C(=O)Nc2cccc(C)c2)c1`, the IC50 is 0.729 µM.

For `O=C(CN1C(=O)C2CC=CCC2C1=O)Nc1nc(-c2ccc(F)cc2)cs1` (stereo not given), the IC50 is > 79 µM (inactive). As to `COc1ccc(-c2cc(NC=O)c3ncc(-c4ccccc4)n3c2)cc1OC`, the IC50 is > 79 µM (inactive).

For the compound `CC(=O)Nc1cccc(NC(=O)c2cc(-c3cccnc3)nc3ccc(Cl)cc23)c1`, the IC50 is 2.24 µM. For the compound `NS(=O)(=O)c1ccc(CCNc2ccn3nc(-c4ccc(OCCN5CCOCC5)cc4)cc3n2)cc1`, the 50% inhibitory concentration (IC50) was 7.72 µM. Regarding `Cc1ccc(Cn2c(CCNc3nc(-c4ccc(Cl)c([N+](=O)[O-])c4)cs3)nc3cc(C(=O)NCCCO)ccc32)cc1`, the IC50 was 1.48 µM. The figure for `COc1cc(/C=C/c2nc3ccccc3c(=O)n2-c2ccccc2O)ccc1O` is 9.9 µM.

For the compound `C[C@@H]1CN([C@@H](C)CO)C(=O)c2cc(NC(=O)Nc3ccccc3)ccc2O[C@H]1CN(C)C(=O)Nc1cccc2ccccc12`, the IC50 is 8.2 µM.

As to `Cc1cccc(NC(=O)c2nc[nH]c2C(=O)NCC(=O)OCc2ccccc2)c1`, the half-maximal inhibitory concentration (IC50) is 3.54 µM.

In the case of `COc1ccc2[nH]c(=O)c(CN(Cc3cccnc3)S(=O)(=O)c3ccccc3F)cc2c1`, the concentration for half-maximal inhibition (IC50) was 0.43 µM.

With `CNC(=O)COC(=O)/C=C/c1cn(-c2ccccc2)nc1-c1ccc(C)o1`, the IC50 was 6.31 µM. `CC(C)(C)OC(=O)CNC(=O)c1[nH]cnc1C(=O)Nc1ccc(CNC(=O)OC(C)(C)C)cc1`: the IC50 is 2.15 µM. In the case of `O=C(NCC(=O)N(Cc1ccccc1)C(C(=O)NC1CCCCC1)c1ccco1)c1ccco1` (stereo not given), the IC50 is 38.7 µM (inactive).

As for `Cc1ccc(NC(=O)c2nc[nH]c2C(=O)NCCCCCCNC(=O)c2[nH]cnc2C(=O)Nc2ccc(C)cc2)cc1`, the IC50 was 3.93 µM. For the compound `CCCCNC(=O)c1cn(-c2ccc(OCC)cc2)c(=O)c2cc(OC)c(OC)cc12`, the IC50 is > 79 µM (inactive).

As for `COc1cc(-c2cc3nc(NCCOc4ccccc4)ccn3n2)cc(OC)c1OC`, the IC50 is 7.16 µM.

With `NC(=O)c1oc2ccccc2c1NC(=O)c1ccco1`, the IC50 was 21.4 µM (inactive). In the case of `COc1ccccc1OCC(=O)Nc1cccc(-c2nnc(-c3ccco3)o2)c1`, the IC50 was > 79 µM (inactive). The figure for `O=CNc1cc(-c2ccc(C(=O)NC3CC3)cc2)cn2c(-c3ccc(F)c(Cl)c3)cnc12` is 5.46 µM; for `Cc1cccc(NC(=O)c2cc(-c3ccco3)nc3ccccc23)n1` it is 8.15 µM. In the case of `CC(=O)c1ccc(-c2cnc3c(NC=O)cc(-c4cccc(C(=O)N(C)C)c4)cn23)cc1`, the IC50 was 18.9 µM (inactive).

Turning to `CCn1c(=O)cc(OCC(=O)Nc2ccccc2C#N)c2ccccc21`, the IC50 was 11.9 µM (inactive). Consider `COc1cc(NC(=O)c2cc3c(C)nc4ccccc4c3o2)cc(OC)c1OC`, for which the IC50 was 3.36 µM.

For the compound `COc1ccc(C(=O)Nc2cc(C)nn2-c2nc3ccccc3[nH]2)c(OC)c1`, the IC50 is 10.9 µM (inactive). The figure for `CCOC(=O)C1=C(CC)Nc2ccccc2N=C1NC(=O)c1ccc(S(=O)(=O)N(C)C)cc1` is 4.8 µM; for `CCC(=O)N1CCN(c2ccccc2NC(=O)c2ccc(-c3cccc([N+](=O)[O-])c3)o2)CC1` it is 1.99 µM; for `COC(=O)c1ccccc1NC(=O)c1nc2nc(C)cc(C)n2n1` it is 31.2 µM (inactive). With `CCOC(=O)N1CCN(C(=O)CSc2nc3c(cnn3-c3ccc(C)cc3)c(=O)[nH]2)CC1` the figure was 2.14 µM; with `NC(=O)c1nsc(C(=O)N(c2ccccc2F)C(C(=O)NCc2ccccc2)c2ccc(O)cc2)c1N` (stereo not given), 0.75 µM; with `O=C(CCCn1c(SCC(=O)c2ccc(O)c(O)c2)nc2ccccc2c1=O)NCC1CCCO1` (stereo not given), 21.7 µM (inactive). Regarding `CCN(CC)C(=O)c1ccc2c3c(cccc13)C(=O)N(CCc1ccc(OC)c(OC)c1)C2=O`, the IC50 is > 79 µM (inactive). On to `CC1CN(c2nn3c(=O)c4ccccc4nc3c3ccccc23)CC(C)O1` (stereo not given), for which the IC50 was 32.5 µM (inactive).

For the compound `CC(=O)Nc1cc(-c2cccc(C(=O)N(C)C)c2)cn2c(-c3ccc(C(C)=O)cc3)cnc12`, the 50% inhibitory concentration (IC50) was 7.78 µM. In the case of `COc1ccc(-c2cc(C(=O)NNC(=O)c3csc(N4CCOCC4)n3)c3ccccc3n2)cc1`, the IC50 was 14.1 µM (inactive). For the compound `O=C(Nc1ccccc1)c1nc[nH]c1C(=O)NCCCCCCNC(=O)c1[nH]cnc1C(=O)Nc1ccccc1`, the IC50 was 5.52 µM. Consider `COc1ccc(Nc2nnc(SCc3cc(=O)n4ccsc4n3)s2)cc1`, for which the IC50 is 8.23 µM. Regarding `CCOC(=O)C1CCN(c2cc3c(cc2NC(=O)c2ccccc2Cl)n(C)c(=O)n3C)CC1`, the IC50 is 5.6 µM. Regarding `COc1cc(-c2cc(NC(C)=O)c3ncc(-c4cc(OC)c(OC)c(OC)c4)n3c2)cc(OC)c1OC`, the IC50 was 3.85 µM. With `COc1ccc(Nc2nc(C(=O)N3CCc4cc(OC)c(OC)cc4C3)cs2)cc1`, the IC50 was 4.29 µM. The figure for `COc1cccc2cc(-c3cc(=O)oc4ccc(OCC(C)=O)cc34)oc12` is 3.21 µM; for `CC(=O)c1cccc(Nc2nc3ccccc3n3cnnc23)c1` it is 3.87 µM. For the compound `COc1ccccc1N1CCN(C(=O)c2ccc3nc(-c4ccco4)c(-c4ccco4)nc3c2)CC1`, the IC50 is 7.68 µM. With `COc1cc(C(=O)Nc2cccc(-c3nnc(-c4ccco4)o3)c2)ccc1OC(C)=O` the figure was > 79 µM (inactive); with `CC(=O)c1ccc(-c2ccc(C(=O)Nc3nc(-c4ccccn4)cs3)o2)cc1`, 1.57 µM. For the compound `CCOC(=O)C1CCN(c2cc3c(cc2NC(=O)c2ccc(OC)c(OC)c2)n(C)c(=O)n3C)CC1`, the IC50 is 1.22 µM.

As to `COc1cccc(OC)c1C(=O)Nc1cc(C)nn1-c1nc2ccccc2[nH]1`, the IC50 is 4.1 µM. In the case of `CCOC(=O)C1=C(C)NC(C)=C(C(=O)OCC)C1C(=O)OCC(=O)NC1CCCCC1`, the IC50 is 3.32 µM.

For the compound `CCOc1cccc(Nc2cc3n(c(=O)n2)CCc2cc(OC)c(OC)cc2-3)c1`, the IC50 was 23 µM (inactive).

As for `CC(=O)c1cccc(-c2cnc3c(NC=O)cc(-c4cccc(C(=O)N(C)C)c4)cn23)c1`, the IC50 is 14.9 µM (inactive). Consider `COc1cc(OC)cc(C(=O)Nc2ccc(-c3nc4ccccc4o3)cc2)c1`, for which the IC50 was > 79 µM (inactive). Take `COC(=O)c1cccc(Nc2nc(-c3cccnc3)nc3ccccc23)c1`: the IC50 is 7.12 µM. In the case of `CCCn1nc(C(=O)Nc2nc(-c3ccccn3)cs2)c2ccccc2c1=O`, the half-inhibitory concentration (IC50) was 3.37 µM.

By IC50 is commonly meant the concentration needed to halve the response being measured.
